Like-named read-outs stand apart in the source and are kept apart here.
How the values were obtained:
[1] = Intranasal PK study of d-amphetamine, hArg-Amp, Orn-Amp (Example 10); details: rat; for % Tmax: relative to d-amp
[2] = Oral PK study of Lys-Amp, hArg-Amp, Orn-Amp and Cit-Amp (Example 9); details: rat; for % Tmax: relative to Lys-Amp
[3] = Oral gavage PK study of Lys-Amp and hArg-Amp, plasma d-amphetamine by ELISA (Example 7); details: rat, relative to Lys-Amp
[4] = Average of 4 oral PK studies of Lys-Amp and hArg-Amp (Example 7, Table 3); details: average of 4 oral studies, n=20; relative to Lys-Amp
[5] = Intravenous PK study of d-amphetamine, hArg-Amp, Orn-Amp (Example 11); details: rat, relative to d-amp
[6] = rat, oral; relative to hArg-Amp
[7] = PK of d-amphetamine after parenteral (intranasal, intravenous) administration of hArg-Amp (Example 1)
[8] = plasma d-amphetamine, given in minutes

Row | Compound | Tmax [1, 8] [m] | % Tmax [1] [%] | Tmax compared to Lys-Amp [2] | Tmax [2, 8] [m] | % Tmax [2] [%] | % Tmax [3] [%] | % Tmax [4] [%] | Cmax ([2]; plasma d-amphetamine) [ng/mL] | % Tmax [5] [%] | % Tmax [6] [%] | release of amphetamine [7] [%]
1 | C[C@H](N)Cc1ccccc1 [d-amp, d-amphetamine] | 15 | 100 | – | – | – | – | – | – | – | – | –
2 | 1-citrulline-d-amphetamine hydrochloride [Cit-Amp] | – | – | significantly shifted the Tmax | 15 | 25 | – | – | – | – | – | –
3 | l-lysine-d-amphetamine [Lys-Amp, reference compound] | – | – | – | – | 100 | 100 | 100 | 59 | – | – | –
4 | C[C@@H](Cc1ccccc1)NC(=O)[C@@H](N)CCCCN=C(N)N.Cl.Cl [hArg-Amp, l-homoarginine-d-amphetamine dihydrochloride] | – | 1600 | – | – | 200 | 133 | 400 | – | 100 | 100 | < 50

Source: patent US20090234018A1, “Non-Standard Amino Acid Conjugates of Amphetamine and Processes for Making and Using the Same” (priority 2006, published 2009)
